Read-outs that look alike come from different tables or passages of the source. Marks after values point to notes of the source that are not given here.
Legend:
[1] = system: CATIE Phase I non-responders; conditions: CATIE Phase II, LOCF; for Responders (number): decrease PANSS ≧ 20%
[2] = system: CATIE African American schizophrenia patients; experiment: CATIE drug response: change in total PANSS (LOCF), segmented by SULT4A1-1 status, African Americans; assay type: in vivo, human
Procedure: The design of the CATIE study has been described in detail by others (Lieberman et al., 2005; Stroup et al., 2003). […] A total of 738 subjects consented to provide DNA for genetic study. […] Retrospective genetic analyses, judged to be exempt from human studies requirements by an IRB, were conducted in the current study. All tested patients were studied using well established clinical endpoints comparing baseline, intermediate, and last observation carried forward (LOCF) for the PANSS scores using CATIE data. […] To remove time on drug as a variable for the CATIE trial, analysis was limited to only those patients who were randomized to a different drug following the initial washout period (drug switchers).

[3] = system: CATIE Caucasian schizophrenia patients; experiment: CATIE Phase 1 drug response: change in total PANSS (LOCF), drug switchers, segmented by SULT4A1-1 status; assay type: in vivo, human; conditions: for ≦−20% (number of individuals with this percent change in total PANSS; responders) / ≧−20% (number of individuals with this percent change in total PANSS; non-responders): LOCF; for Non Responder (number) / Responder (number): Table 16, 20% decrease in PANSS threshold
From the text: There are several different metrics for quantifying response in clinical trials of antipsychotic medications. The most commonly used psychometric instrument is the Positive and Negative Syndrome Scale (PANSS), a 30-item semi-quantitative instrument scored by clinical professionals (Kay et al., 1987). The greater the decrease in PANSS score, the better the clinical response. The most direct measure of clinical response is absolute change in PANSS score. In addition to absolute change, the improvement is often reported as a percentage change from baseline PANSS score.
A decrease of at least 20% in total PANSS is one commonly used threshold for response (Leucht et al., 2009).
The design of the CATIE study has been described in detail by others (Lieberman et al., 2005; Stroup et al., 2003). […] A total of 738 subjects consented to provide DNA for genetic study. […] Retrospective genetic analyses, judged to be exempt from human studies requirements by an IRB, were conducted in the current study.
All tested patients were studied using well established clinical endpoints comparing baseline, intermediate, and last observation carried forward (LOCF) for the PANSS scores using CATIE data. LOCF analysis is a commonly used clinical endpoint for clinical trials for neuropsychiatric drugs, with changes in PANSS scores of between negative 20% and negative 30% used as typical endpoints to indicate clinically significant response (Leucht et al., 2009). To remove time on drug as a variable for the CATIE trial, analysis was limited to only those patients who were randomized to a different drug following the initial washout period (drug switchers).
As mentioned previously, the mean change in absolute or percent PANSS provides an important measure of efficacy in patients undergoing antipsychotic treatments. Indeed, many pivotal trials in the psychosis field used absolute and/or percentage change in PANSS Score as the primary endpoint (Leucht et al., 2009). […] Therefore, in addition to examining a categorical definition of clinically significant response, the inventors determined the impact of segmentation by SULT4A1-1 status on the quantitative measure of clinical improvement—delta PANSS.

[4] = system: CATIE schizophrenia patients; experiment: Length of successful treatment by the CGI scale (TMSUCC1) in CATIE; assay type: in vivo, human
From the text: The CATIE clinical data set included the Clinical Global Impression (CGI) Scale, an observer-provided assessment of the psychiatric health of the patient (Stroup et al., 2003; Guy 1976). Patients are rated with the CGI Scale from 1 to 7, with higher scores indicating greater severity of illness. The CATIE study provided a response variable that measured the time (in months) of successful treatment as measured by the CGI scale (“TMSUCC1” in the CATIE data).
The CATIE clinical data set included Clinical Global Impression (CGI) Scale, an observer-provided assessment of the psychiatric health of the patient (Stroup et al., 2003; Guy 1976). Patients are rated with the CGI Scale from 1 to 7, with higher scores indicating greater severity of illness. The CATIE study provided a response variable that measured the time (in months) of successful treatment as measured by the CGI scale (“TMSUCC1” in the CATIE data).

[5] = system: CATIE Caucasian schizophrenia patients; experiment: Time to discontinuation for all causes in the CATIE study; assay type: in vivo, human; conditions: SULT4A1-1 Negative
From the text: The primary endpoint for the CATIE study was time to discontinuation for all causes (Lieberman et al., 2005). Thus the inventors evaluated the effect of SULT41-1 status on this important parameter.

CATIE Caucasian subjects = experiment: Rate of hospitalization due to exacerbation of psychosis in CATIE by SULT4A1-1 status; assay type: in vivo, human
From the text: For this analysis, the inventors assigned a dichotomous value (positive or negative) for hospitalization status to subjects in each phase of the trial based on only the first hospitalization event for a given patient in that phase.

[6] = SULT4A1-1 Negative, CATIE Caucasians
[7] = SULT4A1-1 Positive, CATIE Caucasians
[8] = SULT4A1-1 negative group (sign not given)
[9] = SULT4A1-1 positive group (sign not given)
[10] = olanzapine SULT4A1-1 + vs olanzapine SULT4A1-1 −, CATIE
[11] = olanzapine SULT4A1-1 + vs perphenazine SULT4A1-1 +, CATIE
[12] = olanzapine SULT4A1-1 + vs quetiapine SULT4A1-1 +, CATIE
[13] = olanzapine SULT4A1-1 + vs risperidone SULT4A1-1 +, CATIE
[14] = olanzapine SULT4A1-1 + vs unsegmented (all drugs), CATIE
[15] = olanzapine SULT4A1-1 + vs unsegmented SULT4A1-1 +, CATIE
[16] = olanzapine SULT4A1-1 + vs unsegmented olanzapine, CATIE
[17] = olanzapine SULT4A1-1 + vs ziprasidone SULT4A1-1 +, CATIE
[18] = SULT4A1-1 Positive, CATIE Phases 1, 2 and/or 3
[19] = Unsegmented, CATIE Phases 1, 2 and/or 3

Q: How did the “Nonresponders (number)” value ([1]; SULT4A1-1 Negative) turn out when `Cc1cc2c(s1)Nc1ccccc1N=C2N1CCN(C)CC1` [Olanzapine] was run?
A: 14

Q: What about the “Responders (number)” value ([1]; SULT4A1-1 Negative) of the same compound?
A: 3

Q: What about the “Nonresponders (number)” value ([1]; SULT4A1-1 Positive) of the same compound?
A: 4

Q: And the “Responders (number)” value ([1]; SULT4A1-1 Positive)?
A: 3

Q: And the “≦−20% (number of individuals; responders)” value ([2]; SULT4A1-1 Negative)?
A: 15

Q: What about the “≧−20% (number of individuals; non-responders)” value ([2]; SULT4A1-1 Negative) of the same compound?
A: 30

Q: And the “≦−20% (number of individuals; responders)” value ([2]; SULT4A1-1 Positive)?
A: 1

Q: What about the “≧−20% (number of individuals; non-responders)” value ([2]; SULT4A1-1 Positive) of the same compound?
A: 3

Q: And the Responders ([2]; SULT4A1-1 Positive, change in total PANSS ≦−20%)?
A: 25%

Q: What about the “DELTA PANSS % (mean change in PANSS score from baseline to LOCF)” value [3, 6] of the same compound?
A: −3*** %

Q: And the “≦−20% (number of individuals with this percent change in total PANSS; responders)” value [3, 6]?
A: 10

Q: What about the “≧−20% (number of individuals with this percent change in total PANSS; non-responders)” value [3, 6] of the same compound?
A: 33

Q: And the “DELTA PANSS % (mean change in PANSS score from baseline to LOCF)” value ([3]; SULT4A1-1 Negative, CATIE Caucasians, listed as olanzapine)?
A: −3%

Q: What about the “DELTA PANSS % (mean change in PANSS score from baseline to LOCF)” value [3, 7] of the same compound?
A: −24%

Q: What about the “≦−20% (number of individuals with this percent change in total PANSS; responders)” value [3, 7] of the same compound?
A: 10

Q: What about the “≧−20% (number of individuals with this percent change in total PANSS; non-responders)” value [3, 7] of the same compound?
A: 5

Q: And the “Non Responder (number)” value [3, 8]?
A: 33

Q: And the “Responder (number)” value [3, 8]?
A: 10

Q: What about the “Non Responder (number)” value [3, 9] of the same compound?
A: 5

Q: And the “Responder (number)” value [3, 9]?
A: 10

Q: And the Effect size ([3]; olanzapine SULT4A1-1 + vs SULT4A1-1 + except olanzapine, CATIE)?
A: 0.68

Q: What about the Effect size [3, 10] of the same compound?
A: 0.93

Q: What about the “Mean difference (95% CI) in delta PANSS” value [3, 10] of the same compound?
A: −20.9 (−33.4 to −8.4)

Q: What about the Effect size [3, 11] of the same compound?
A: 0.68

Q: What about the “Mean difference (95% CI) in delta PANSS” value [3, 11] of the same compound?
A: −14.2 (−29.8 to 1.4)

Q: What about the Effect size [3, 12] of the same compound?
A: 0.75

Q: What about the “Mean difference (95% CI) in delta PANSS” value [3, 12] of the same compound?
A: −14.9 (−28.3 to −1.5)

Q: And the Effect size [3, 13]?
A: 0.93

Q: And the “Mean difference (95% CI) in delta PANSS” value [3, 13]?
A: −20.9 (−33.2 to −6.0)

Q: And the Effect size [3, 14]?
A: 0.83

Q: And the “Mean difference (95% CI) in delta PANSS” value [3, 14]?
A: −19.6 (−31.7 to −7.5)

Q: And the Effect size [3, 15]?
A: 0.60

Q: What about the “Mean difference (95% CI) in delta PANSS” value [3, 15] of the same compound?
A: −13.0 (−24.7 to −1.2)

Q: And the Effect size [3, 16]?
A: 0.69

Q: What about the “Mean difference (95% CI) in delta PANSS” value [3, 16] of the same compound?
A: −15.5 (−27.8 to −3.2)

Q: And the Effect size [3, 17]?
A: 0.77

Q: And the “Mean difference (95% CI) in delta PANSS” value [3, 17]?
A: −16.1 (−32.7 to 0.5)

Q: And the Effect size ([3]; olanzapine-treated SULT4A1-1 positive patients compared to various other SULT4A1-1-drug combinations, CATIE)?
A: −0.91 to −0.47

Q: And the “delta PANSS” value ([3]; overall (not segmented by SULT4A1-1 status), CATIE)?
A: −9

Q: And the “Responders (number, out of 58)” value ([3]; patients unselected for SULT4A1-1 status, 20% PANSS threshold, CATIE Caucasians)?
A: 20

Q: And the “Length of Successful Treatment (CGI Months), Mean” value ([4]; SULT4A1-1 Positive)?
A: 8.33^d Months

Q: What about the “Length of Successful Treatment (CGI Months), Mean” value ([4]; Unsegmented) of the same compound?
A: 6.10 Months

Q: What about the “Time to discontinuation, mean time in months” value [5] of the same compound?
A: 10.0** Months

Q: What about the “HOSP (number of subjects hospitalized)” value (CATIE Caucasian subjects; [18]) of the same compound?
A: 1

Q: What about the “HOSP (rate of hospitalization)” value (CATIE Caucasian subjects; [18]) of the same compound?
A: (2.6%)

Q: And the “HOSP (rate of hospitalization)” value (CATIE Caucasian subjects; SULT4A1-1 Positive, CATIE Phases 1, 2 and/or 3, listed as olanzapine)?
A: 2.6%

Q: And the “HOSP (number of subjects hospitalized)” value (CATIE Caucasian subjects; SULT4A1-1 negative, CATIE Phases 1, 2 and/or 3)?
A: 22

Q: And the “HOSP (number of subjects hospitalized)” value (CATIE Caucasian subjects; [19])?
A: 23

Q: And the “HOSP (rate of hospitalization)” value (CATIE Caucasian subjects; [19])?
A: (14.2%)

Source: patent publication US7972793B2, “Methods and compositions for the treatment of psychotic disorders through the identification of the SULT4A1-1 haplotype” (Suregene, LLC, priority 2009, dated 2011)
